Measurements from paper PMC7796460, “Relation of Metal-Binding Property and Selective Toxicity of 8-Hydroxyquinoline Derived Mannich Bases Targeting Multidrug Resistant Cancer Cells” (Cancers, 2021).
Marks after values point to notes of the source that are not given here.

Key:
[1] = parameters: method as in PMID 21275772; conditions: T = 25 °C, I = 0.2 M (KCl), cited from earlier work
MDCK-B1 cells = assay: MTT viability assay, MDCK-B1 (wild-type Pgp); type: cell-based, canine; conditions: for IC50: Canis lupus familiaris, 72 h, MTT 72 h
Excerpt: (§1) MDCK II canine kidney cells, A431 epidermoid carcinoma cells, the human uterine sarcoma cell lines MES-SA and the doxorubicin selected MES-SA-Dx5 were obtained from ATCC (MDCK II: No. CRL-2936™, A431: No. CRL-1555™, MES-SA: No. CRL-1976™, MES-SA/Dx5: No. CRL-1977™). ABCB1 was expressed in A431 and MES-SA cells using lentiviral transduction. The human cervix carcinoma cell line KB-3-1 and the vinblastine selected KB-v1were kind gifts from Dr. Michael M. Gottesman, National Institutes of Health. The phenotype of the resistant cells was verified using cytotoxicity assays. MDCK-B1 and MDCK-MM were established by the Sleeping Beauty transposon-based gene delivery system. OVCAR-8 and NCI-ADRres cells (obtained from the Division of Cancer Treatment and Diagnosis (DCTD) Tumor Repository (National Cancer Institute, Frederick, MD, USA)) were cultivated in RPMI-1640 (Sigma Aldrich, Budapest, Hungary), and other cell lines were cultivated in Dulbecco’s Modified Eagle Medium (DMEM, Sigma Aldrich, Budapest, Hungary), supplemented with 10% fetal bovine serum, 5 mM glutamine, and 50 unit/mL penicillin and streptomycin (Life Technologies, Carlsbad, CA, USA). All cell lines were cultivated at 37 °C, 5% CO2.
(§2) MTT viability assays were performed as described earlier with minor modifications. Briefly, cells were seeded into 96-well tissue culture plates (Sarstedt, Newton, NC, USA/Orange, Braine-l’Alleud, Belgium) at a density of 5000 cells/well and allowed to attach overnight. Test compounds were added to achieve the required final concentration in a final volume of 100 µL per well. After an incubation period of 72 h, the supernatant was removed and fresh medium containing the MTT reagent (0.083 mg/mL) was added. Incubation with MTT at 37 °C was terminated after 1 h by removing the supernatant and lysing the cells with 100 µL DMSO per well. Viability of the cells was measured spectrophotometrically based on the absorbance values at 540 nm using either a Perkin Elmer Victor X3 or an EnSpire microplate reader. Data were background corrected by subtraction of the signal obtained from unstained cell lysates and normalized to untreated cells. Curves were fitted by Prism software (GraphPad Software Inc., San Diego, CA, USA) using the sigmoidal dose-response model (comparing variable and fixed slopes). […] Significance was calculated using unpaired t-tests; results are given as *: p ≤ 0.05, **: p ≤ 0.01, ***: p ≤ 0.001, ****: p ≤ 0.0001.

OVCAR-8 cells = assay: MTT viability assay, OVCAR-8; type: cell-based; conditions: Homo sapiens, OVCAR-8, 72 h, MTT 72 h
Excerpt: as §1, §2

MES-SA cells = assay: ROS determination with DCFDA, MES-SA; type: cell-based, human; conditions: 2 h
Experimental: (§3) Measurements were performed as described earlier. Briefly, cells were harvested, washed with PBS, and incubated with 10 µM DCFDA in a water bath shaker at 37 °C for 30 min in a density of 3 × 10^6 cells/mL. After washing with PBS, cells were seeded to 96-well plates in PBS in a density of 2 × 10^4 cells/well. Following the measurement of the basal fluorescence, test compounds were added in different concentrations and the fluorescence of the samples was followed at time intervals of 10 min. DCFDA solution in buffer was used as a cell free control to test for interaction of the test compounds with DCFDA. Data were analyzed as fold change of fluorescence compared to basal levels and untreated cells. Significance was calculated using unpaired t-tests; results are given as *: p ≤ 0.05, **: p ≤ 0.01, ***: p ≤ 0.001, ****: p ≤ 0.0001.
(§4) Table S3: Characterization of intracellular ROS production with the DCFDA assay for P -gp negative MES-SA and P-gp positive MES-SA/Dx5 cells. Fold changes in fluorescence are shown after a 2 h with the investigated 8 -hydroxyquinoline ligands. Data S-refer to Figure 7 and allow […]
(§5) concentration range from 6.25µ M to 50µ M. Fold change of fluorescence obtained in the presence of 5 mM NAC is given in brackets.

MES-SA/Dx5 cells [2] = assay: MTT viability assay, MES-SA/Dx5; type: cell-based, human; conditions: for IC50: Homo sapiens, MES-SA/Dx5, Table S1, calculated as ligand equivalents, read-out: IC50 Dx5; for IC50 / SR: absence of TQ; for Effect of co-administration of CuCl2 on toxicity: MDR MES-SA/Dx5, increasing concentrations of CuCl2, MTT 72 h (Figure 2I-L); for Effect of co-incubation with iron(III) on cytotoxicity: MES-SA/Dx5, increasing concentrations of FeCl3, MTT 72 h (Figure 2A-D); for SR: Table S1, IC50 Pgp negative divided by Pgp positive cells; for SR_TQ: Table S1, presence of 1 µM TQ
Excerpt: as §1, §2

MES-SA/Dx5 cells [3] = assay: ROS determination with DCFDA, MES-SA/Dx5; type: cell-based, human; conditions: 2 h
Experimental: as §3, §4, §5

A431-B1 cells = assay: MTT viability assay, A431-B1; type: cell-based; conditions: for IC50: 72 h, MTT 72 h
Excerpt: as §1, §2

MDCK cells = assay: MTT viability assay, MDCK; type: cell-based, canine; conditions: Canis lupus familiaris, 72 h, MTT 72 h
Excerpt: as §1, §2

[4] = presence of 1 µM Tariquidar (values in brackets)
[5] = IC50 MDCK vs. MDCK-B1, absence of Tariquidar
[6] = IC50 MDCK vs. MDCK-B1, presence of 1 µM Tariquidar (brackets)
[7] = 6.25 µM, presence of 5 mM NAC (brackets)
[8] = 12.5 µM, presence of 5 mM NAC (brackets)
[9] = 25 µM, presence of 5 mM NAC (brackets)
[10] = 50 µM, presence of 5 mM NAC (brackets)
[11] = IC50 MES-SA vs. MES-SA/Dx5, absence of Tariquidar
[12] = IC50 MES-SA vs. MES-SA/Dx5, presence of 1 µM Tariquidar (brackets)
[13] = Table 2, value in brackets (Tariquidar as in Table 1)
[14] = Table 2, value outside brackets
[15] = MES-SA/Dx5, 6.25 µM, presence of 5 mM NAC (brackets)
[16] = MES-SA/Dx5, 12.5 µM, presence of 5 mM NAC (brackets)
[17] = MES-SA/Dx5, 25 µM, presence of 5 mM NAC (brackets)
[18] = MES-SA/Dx5, 50 µM, presence of 5 mM NAC (brackets)
[19] = IC50 A431 vs. A431-B1, absence of Tariquidar
[20] = IC50 A431 vs. A431-B1, presence of 1 µM Tariquidar (brackets)

Structure (SMILES)	pKa (NquinoliniumH+) [1]	pKa (OH) [1]	IC50 (MDCK-B1 cells; absence of Tariquidar) [µM]	IC50 (MDCK-B1 cells; [4]) [µM]	SR MDCK-B1 (MDCK-B1 cells; [5])	SR MDCK-B1 (MDCK-B1 cells; [6])	IC50 (OVCAR-8 cells; absence of Tariquidar) [µM]	IC50 (OVCAR-8 cells; [4]) [µM]	Fold change in fluorescence (DCFDA) (MES-SA cells; 6.25 µM)	Fold change in fluorescence (DCFDA) (MES-SA cells; [7])	Fold change in fluorescence (DCFDA) (MES-SA cells; 12.5 µM)	Fold change in fluorescence (DCFDA) (MES-SA cells; [8])	Fold change in fluorescence (DCFDA) (MES-SA cells; 25 µM)	Fold change in fluorescence (DCFDA) (MES-SA cells; [9])	Fold change in fluorescence (DCFDA) (MES-SA cells; 50 µM)	Fold change in fluorescence (DCFDA) (MES-SA cells; [10])	IC50 (MES-SA/Dx5 cells [2]) [µM]	SR MES-SA/Dx5 (MES-SA/Dx5 cells [2]; [11])	SR MES-SA/Dx5 (MES-SA/Dx5 cells [2]; [12])	Effect of co-administration of CuCl2 on toxicity (MES-SA/Dx5 cells [2])	further results
Oc1cccc2cccnc12 [Compound Q-1, 8-Hydroxyquinoline]	4.99 ^a	9.51 ^a	4.58 ± 1.75	15.2	0.71	0.20	3.45 ± 0.13	3.43	0.965± 0.12	1.261± 0.26	0.799± 0.12	1.148± 0.32	0.722± 0.22	1.193± 0.44	0.748± 0.21	0.912± 0.38	2.46 ± 0.69	1.70	1.73	increased the toxicity	Effect of co-incubation with iron(III) on cytotoxicity (MES-SA/Dx5 cells [2]): did not influence the cytotoxicity; SR MES-SA/Dx5 (Table 2) (MES-SA/Dx5 cells [2]; [13]): 1.73; SR MES-SA/Dx5 (Table 2) (MES-SA/Dx5 cells [2]; [14]): 1.70; SR (MES-SA/Dx5 cells [2]): 1.70; SR_TQ (MES-SA/Dx5 cells [2]): 1.73; Fold change in fluorescence (DCFDA) (MES-SA/Dx5 cells [3]; MES-SA/Dx5, 6.25 µM): 1.006± 0.15; Fold change in fluorescence (DCFDA) (MES-SA/Dx5 cells [3]; [15]): 1.085± 0.11; Fold change in fluorescence (DCFDA) (MES-SA/Dx5 cells [3]; MES-SA/Dx5, 12.5 µM): 0.720± 0.21; Fold change in fluorescence (DCFDA) (MES-SA/Dx5 cells [3]; [16]): 1.071± 0.12; Fold change in fluorescence (DCFDA) (MES-SA/Dx5 cells [3]; MES-SA/Dx5, 25 µM): 0.713± 0.21; Fold change in fluorescence (DCFDA) (MES-SA/Dx5 cells [3]; [17]): 0.971± 0.17; Fold change in fluorescence (DCFDA) (MES-SA/Dx5 cells [3]; MES-SA/Dx5, 50 µM): 0.725± 0.18; Fold change in fluorescence (DCFDA) (MES-SA/Dx5 cells [3]; [18]): 0.918± 0.10; IC50 (A431-B1 cells; absence of Tariquidar): 8.21 ± 4.04 µM; IC50 (A431-B1 cells; [4]): 7.06 µM; SR A431-B1 (A431-B1 cells; [19]): 0.31; SR A431-B1 (A431-B1 cells; [20]): 0.41; IC50 (MDCK cells; absence of Tariquidar): 3.27 ± 1.24 µM; IC50 (MDCK cells; [4]): 3.08 µM
Oc1c(CN2CCOCC2)ccc2cccnc12 [Compound Q-2, 7-(morpho-lino-methyl)quinolin-8-ol]	2.59 ^a	10.37 ^a	12 ± 7.84	12.1	0.76	0.92	3.16 ± 0.52	3.28	1.598± 0.32	1.096± 0.16	1.792± 0.53	0.930± 0.16	2.101± 0.86	0.988± 0.15	2.454± 1.39	0.946± 0.14	3.27 ± 0.39	2.13	0.85	increased the toxicity	pKa (additional) ([1]; group named in the cell): 6.25 ^a (NmorpholiniumH^+); Effect of co-incubation with iron(III) on cytotoxicity (MES-SA/Dx5 cells [2]): selectively protected MES-SA/Dx5 cells; SR MES-SA/Dx5 (Table 2) (MES-SA/Dx5 cells [2]; [13]): 0.85; SR MES-SA/Dx5 (Table 2) (MES-SA/Dx5 cells [2]; [14]): 2.13; SR (MES-SA/Dx5 cells [2]): 2.13; SR_TQ (MES-SA/Dx5 cells [2]): 0.85; Fold change in fluorescence (DCFDA) (MES-SA/Dx5 cells [3]; MES-SA/Dx5, 6.25 µM): 1.863± 0.81; Fold change in fluorescence (DCFDA) (MES-SA/Dx5 cells [3]; [15]): 1.024± 0.19; Fold change in fluorescence (DCFDA) (MES-SA/Dx5 cells [3]; MES-SA/Dx5, 12.5 µM): 2.324± 1.25; Fold change in fluorescence (DCFDA) (MES-SA/Dx5 cells [3]; [16]): 1.137± 0.32; Fold change in fluorescence (DCFDA) (MES-SA/Dx5 cells [3]; MES-SA/Dx5, 25 µM): 3.348± 2.35; Fold change in fluorescence (DCFDA) (MES-SA/Dx5 cells [3]; [17]): 1.074± 0.28; Fold change in fluorescence (DCFDA) (MES-SA/Dx5 cells [3]; MES-SA/Dx5, 50 µM): 4.103± 2.67; Fold change in fluorescence (DCFDA) (MES-SA/Dx5 cells [3]; [18]): 1.154± 0.22; IC50 (A431-B1 cells; absence of Tariquidar): 4.05 ± 1.86 µM; IC50 (A431-B1 cells; [4]): 7.64 µM; SR A431-B1 (A431-B1 cells; [19]): 0.82; SR A431-B1 (A431-B1 cells; [20]): 0.42; IC50 (MDCK cells; absence of Tariquidar): 9.15 ± 3.51 µM; IC50 (MDCK cells; [4]): 11.1 µM
